In BigSolDB 2.1:

NC(N)=C([N+](=O)[O-])[N+](=O)[O-]
Details	solubility (mole fraction)
in 1,4-dioxane, 298.15 K	7.2e-05
in 1,4-dioxane, 314.15 K	0.000102
in 1,4-dioxane, 326.85 K	0.000143
in 1,4-dioxane, 339.65 K	0.000215
in 1,4-dioxane, 341.45 K	0.000257
in 1,4-dioxane, 347.55 K	0.000315
in 1,4-dioxane, 358.35 K	0.000357
in DEF, 298.35 K	0.0702
in DEF, 314.15 K	0.0824
in DEF, 324.95 K	0.0914
in DEF, 340.15 K	0.102
in DEF, 349.85 K	0.112
in DEF, 367.45 K	0.15
in DMF, 297.15 K	0.0946
in DMF, 310.75 K	0.109
in DMF, 327.85 K	0.122
in DMF, 340.15 K	0.136
in DMF, 352.75 K	0.148
in DMF, 361.05 K	0.161
in DMF, 365.15 K	0.173
in DMSO, 293.75 K	0.183
in DMSO, 303.85 K	0.188
in DMSO, 312.15 K	0.193
in DMSO, 319.15 K	0.204
in DMSO, 328.65 K	0.214
in DMSO, 339.85 K	0.224
in DMSO, 350.15 K	0.233
in DMSO, 354.15 K	0.238
in DMSO, 358.15 K	0.242
in DMSO, 367.15 K	0.261
in NMP, 295.05 K	0.163
in NMP, 318.15 K	0.186
in NMP, 344.45 K	0.207
in NMP, 363.85 K	0.227
in NMP, 371.75 K	0.246
in cyclohexanone, 291.95 K	0.00244
in cyclohexanone, 320.85 K	0.00434
in cyclohexanone, 330.95 K	0.00521
in cyclohexanone, 335.65 K	0.0061
in cyclohexanone, 343.15 K	0.00693
in cyclohexanone, 360.85 K	0.0104
in cyclohexanone, 370.35 K	0.0138
in ethyl acetate, 296.15 K	0.000116
in ethyl acetate, 304.95 K	0.000187
in ethyl acetate, 314.75 K	0.00027
in ethyl acetate, 318.15 K	0.000282
in ethyl acetate, 324.35 K	0.000332
in ethyl acetate, 326.55 K	0.000368
in ethyl acetate, 334.15 K	0.000444
in ethyl acetate, 344.65 K	0.000544
in gamma-butyrolactone, 300.15 K	0.0064
in gamma-butyrolactone, 304.15 K	0.0077
in gamma-butyrolactone, 324.55 K	0.0128
in gamma-butyrolactone, 332.55 K	0.0153
in gamma-butyrolactone, 336.45 K	0.0178
in gamma-butyrolactone, 343.45 K	0.0202
in gamma-butyrolactone, 346.25 K	0.0227
in gamma-butyrolactone, 350.85 K	0.0252
in gamma-butyrolactone, 357.85 K	0.0313
in gamma-butyrolactone, 368.55 K	0.0373
in water, 296.15 K	2e-05
in water, 303.45 K	3.5e-05
in water, 310.75 K	6e-05
in water, 318.65 K	0.000122
in water, 326.15 K	0.000154
in water, 328.55 K	0.000198
in water, 337.95 K	0.000277
in water, 343.15 K	0.000365
in water, 348.75 K	0.000504
